Data from ChEMBL document CHEMBL1201862, “PubChem BioAssay data set” (2004).
Calls of active or inactive are those of the source.

Assays:
[1] = biological target: T1, Neuropeptide Y receptor type 2 (Homo sapiens, UniProt P49146); assay: Fluorescence-based cell-based high-throughput dose response assay for agonists of NPY-Y2. [Related pubchem assays: 1703 (Screening assay (CNGC inhibitors).), 1359 (Screening assay (NPY-Y2 potentiators or agonists).), 1304 (Screening assay (NPY-Y1 potentiators or agonists).), 1710 (Screening assay (NPY-Y2 agonists).), 1791 (Summary AID.)]; format: functional
T1 sequence (P49146 whole entry): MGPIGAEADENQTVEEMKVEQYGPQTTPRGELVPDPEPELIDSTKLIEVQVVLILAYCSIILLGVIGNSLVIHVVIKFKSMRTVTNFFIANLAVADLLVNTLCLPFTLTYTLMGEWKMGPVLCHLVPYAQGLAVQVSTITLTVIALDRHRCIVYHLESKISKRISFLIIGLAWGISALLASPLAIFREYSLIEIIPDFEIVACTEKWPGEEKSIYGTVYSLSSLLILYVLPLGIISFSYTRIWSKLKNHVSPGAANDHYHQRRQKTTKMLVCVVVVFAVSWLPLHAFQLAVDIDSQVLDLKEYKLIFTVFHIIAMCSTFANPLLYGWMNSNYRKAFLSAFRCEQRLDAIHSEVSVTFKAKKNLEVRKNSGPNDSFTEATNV

[2] = biological target: T2, Neuropeptide Y receptor type 1 (Homo sapiens, UniProt P25929); assay: Fluorescence-based counterscreen for agonists of NPY-Y2: cell-based high-throughput dose response assay for agonists of NPY-Y1.; format: functional
T2 sequence (P25929 whole entry): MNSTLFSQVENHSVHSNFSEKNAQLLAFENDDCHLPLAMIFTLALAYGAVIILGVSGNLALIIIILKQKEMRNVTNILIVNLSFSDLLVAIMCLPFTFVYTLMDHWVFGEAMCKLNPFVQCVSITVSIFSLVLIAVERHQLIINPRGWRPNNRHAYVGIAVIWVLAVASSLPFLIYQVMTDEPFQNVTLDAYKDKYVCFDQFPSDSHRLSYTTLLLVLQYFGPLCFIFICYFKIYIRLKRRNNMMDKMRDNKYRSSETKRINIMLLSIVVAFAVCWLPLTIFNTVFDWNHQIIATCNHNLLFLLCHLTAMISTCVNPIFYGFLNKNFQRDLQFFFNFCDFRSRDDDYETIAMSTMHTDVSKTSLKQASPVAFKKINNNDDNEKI

Streptokinase A = biological target: T3, Streptokinase A (Streptococcus pyogenes serotype M1, UniProt P10520); assay: S. pyogenes streptokinase expression inhibitors, potency, dose response, plasminogen activation absorbance, OD405 (AID 1914); format: functional, Streptococcus pyogenes M1 GAS;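 further: secreted streptokinase activity via plasminogen activation per viability signal from cell pellet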
T3 sequence (P10520 whole entry): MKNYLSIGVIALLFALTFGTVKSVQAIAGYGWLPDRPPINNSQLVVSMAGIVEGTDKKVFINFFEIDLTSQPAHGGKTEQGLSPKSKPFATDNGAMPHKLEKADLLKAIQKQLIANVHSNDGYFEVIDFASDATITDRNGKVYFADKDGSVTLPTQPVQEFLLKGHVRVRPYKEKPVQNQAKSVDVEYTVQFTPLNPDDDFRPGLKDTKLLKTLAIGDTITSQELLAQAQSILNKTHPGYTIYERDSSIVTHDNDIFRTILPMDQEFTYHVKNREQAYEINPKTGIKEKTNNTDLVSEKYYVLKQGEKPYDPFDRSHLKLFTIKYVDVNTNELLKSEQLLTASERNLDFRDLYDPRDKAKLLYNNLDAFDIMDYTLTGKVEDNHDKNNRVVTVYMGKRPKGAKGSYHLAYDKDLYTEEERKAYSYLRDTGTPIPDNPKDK

[3] = biological target: T1, Neuropeptide Y receptor type 2; assay: Fluorescence-based cell-based high-throughput dose response assay for potentiators or agonists of NPY-Y2. [Related pubchem assays: 1539 (Screening assay (NPY-Y2 potentiators or agonists).), 1703 (Screening assay (CNGC inhibitors).), 1359 (Screening assay (NPY-Y2 potentiators or agonists).), 1304 (Screening assay (NPY-Y1 potentiators or agonists).) …; format: functional
Protein RecA = biological target: T4, Protein RecA (Mycobacterium tuberculosis, UniProt P9WHJ3); assay: Fluorescence Cell-Free Homogeneous Dose Retest to Identify Inhibitors of RecA-Intein Splicing Activity. [Related pubchem assays (depositor defined):AID2097, AID2223, AID489010, AID492950]; format: functional
T4 sequence (P9WHJ3 whole entry): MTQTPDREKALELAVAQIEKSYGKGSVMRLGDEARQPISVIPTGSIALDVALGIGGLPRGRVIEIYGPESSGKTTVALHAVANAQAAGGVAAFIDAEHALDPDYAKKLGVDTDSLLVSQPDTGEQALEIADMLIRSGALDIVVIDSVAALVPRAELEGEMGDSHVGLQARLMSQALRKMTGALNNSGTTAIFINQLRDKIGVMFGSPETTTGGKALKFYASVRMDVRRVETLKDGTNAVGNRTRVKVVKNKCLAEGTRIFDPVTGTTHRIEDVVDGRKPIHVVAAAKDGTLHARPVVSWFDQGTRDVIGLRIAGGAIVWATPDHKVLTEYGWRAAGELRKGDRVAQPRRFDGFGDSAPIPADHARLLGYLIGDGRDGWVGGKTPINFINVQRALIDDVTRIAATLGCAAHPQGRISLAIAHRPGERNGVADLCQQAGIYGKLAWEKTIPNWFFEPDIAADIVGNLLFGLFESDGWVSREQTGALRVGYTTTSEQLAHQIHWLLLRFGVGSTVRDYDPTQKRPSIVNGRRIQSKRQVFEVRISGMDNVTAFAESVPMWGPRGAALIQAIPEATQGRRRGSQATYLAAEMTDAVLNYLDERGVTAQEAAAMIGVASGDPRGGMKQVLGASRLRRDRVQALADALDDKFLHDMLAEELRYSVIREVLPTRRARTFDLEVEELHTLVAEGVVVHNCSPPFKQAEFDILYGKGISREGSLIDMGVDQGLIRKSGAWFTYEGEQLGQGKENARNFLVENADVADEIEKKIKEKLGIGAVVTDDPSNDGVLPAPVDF

[4] = biological target: T2, Neuropeptide Y receptor type 1; assay: Fluorescence-based counterscreen for potentiators or agonists of NPY-Y2: cell-based high-throughput dose response assay for potentiators or agonists of NPY-Y1.; format: functional
[5] = biological target: T5, Replicative DNA helicase DnaB (Mycobacterium tuberculosis, UniProt P9WMR3); assay: DnaB intein splicing inhibitors, dose response, biochemical, cell-free fluorescence (AID 449749); format: functional
T5 sequence (P9WMR3 whole entry): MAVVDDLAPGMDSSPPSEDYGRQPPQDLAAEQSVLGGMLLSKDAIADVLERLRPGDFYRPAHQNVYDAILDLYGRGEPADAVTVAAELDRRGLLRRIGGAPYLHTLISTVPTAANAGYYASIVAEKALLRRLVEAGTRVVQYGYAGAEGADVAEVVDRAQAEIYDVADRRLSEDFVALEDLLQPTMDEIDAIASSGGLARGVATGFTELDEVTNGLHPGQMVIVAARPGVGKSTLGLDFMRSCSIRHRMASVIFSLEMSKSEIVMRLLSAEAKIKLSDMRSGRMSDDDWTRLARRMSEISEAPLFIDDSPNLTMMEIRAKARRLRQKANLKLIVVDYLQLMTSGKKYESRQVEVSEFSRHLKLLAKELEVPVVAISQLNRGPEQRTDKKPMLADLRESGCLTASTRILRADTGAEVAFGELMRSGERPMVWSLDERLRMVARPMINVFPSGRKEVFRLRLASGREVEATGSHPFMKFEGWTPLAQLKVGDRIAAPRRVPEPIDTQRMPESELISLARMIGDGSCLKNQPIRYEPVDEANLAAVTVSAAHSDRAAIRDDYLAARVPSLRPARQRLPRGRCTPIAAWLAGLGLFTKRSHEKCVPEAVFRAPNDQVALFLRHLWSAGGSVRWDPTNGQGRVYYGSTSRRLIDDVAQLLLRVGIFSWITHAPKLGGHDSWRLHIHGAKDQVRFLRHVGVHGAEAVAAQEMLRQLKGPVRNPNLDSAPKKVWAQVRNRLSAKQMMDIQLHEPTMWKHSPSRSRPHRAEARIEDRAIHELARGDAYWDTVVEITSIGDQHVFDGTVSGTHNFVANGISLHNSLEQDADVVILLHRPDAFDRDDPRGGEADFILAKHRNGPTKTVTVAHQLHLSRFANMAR

[6] = biological target: Photoreceptor-specific nuclear receptor (Homo sapiens, UniProt Q9Y5X4); format: functional, cell-based;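 further: CHO-S cells with Gal4-NCOR and VP16-NR2E3 two-hybrid luciferase reporter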
[7] = biological target: Potassium voltage-gated channel subfamily KQT member 2 (Rattus norvegicus, UniProt O88943, W236L); assay: KCNQ2 channel potentiators, dose response, mechanism study for KCNQ2 potentiator project, cell-based, automated electrophysiology (AID 2603); format: functional
Estrogen receptor beta = Estrogen receptor beta (Homo sapiens, UniProt Q92731); assay: ERβ–SRC-3 coactivator interaction inhibitors, confirmation, orthogonal assay, biochemical, ELISA, streptavidin-HRP readout (AID 1060)
Bcl-2-like protein 10 = Bcl-2-like protein 10 (Homo sapiens, UniProt Q9HD36); assay: displacers of TR3 peptide from Bcl-B, primary screen, selectivity assay for Bfl-1 inhibitor project, biochemical, fluorescence polarization, FITC-TR3 peptide (AID 748);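 further: fluorescence polarization from a fluorescein-labelled TR3 peptide binding purified Bcl-B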
Sequence of Bcl-2-like protein 10 (Q9HD36 whole entry): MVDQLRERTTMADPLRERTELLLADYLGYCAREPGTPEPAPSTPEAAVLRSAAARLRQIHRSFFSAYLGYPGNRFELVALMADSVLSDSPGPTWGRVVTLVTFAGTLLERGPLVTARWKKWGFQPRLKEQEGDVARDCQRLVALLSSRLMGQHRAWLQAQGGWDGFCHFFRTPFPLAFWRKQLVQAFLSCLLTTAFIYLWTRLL

Sequence of Photoreceptor-specific nuclear receptor (Q9Y5X4 whole entry, the tested form may be a part): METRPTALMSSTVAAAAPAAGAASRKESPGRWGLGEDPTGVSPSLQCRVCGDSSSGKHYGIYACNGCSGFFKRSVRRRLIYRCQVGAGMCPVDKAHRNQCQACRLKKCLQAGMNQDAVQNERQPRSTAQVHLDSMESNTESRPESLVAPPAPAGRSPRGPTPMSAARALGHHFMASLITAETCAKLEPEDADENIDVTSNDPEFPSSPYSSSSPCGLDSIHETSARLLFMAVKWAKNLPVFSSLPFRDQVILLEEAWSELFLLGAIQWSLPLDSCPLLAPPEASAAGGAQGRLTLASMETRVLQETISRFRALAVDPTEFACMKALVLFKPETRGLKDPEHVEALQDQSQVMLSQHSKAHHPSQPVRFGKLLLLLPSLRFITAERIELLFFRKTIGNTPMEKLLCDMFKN
Sequence of Estrogen receptor beta (Q92731 whole entry): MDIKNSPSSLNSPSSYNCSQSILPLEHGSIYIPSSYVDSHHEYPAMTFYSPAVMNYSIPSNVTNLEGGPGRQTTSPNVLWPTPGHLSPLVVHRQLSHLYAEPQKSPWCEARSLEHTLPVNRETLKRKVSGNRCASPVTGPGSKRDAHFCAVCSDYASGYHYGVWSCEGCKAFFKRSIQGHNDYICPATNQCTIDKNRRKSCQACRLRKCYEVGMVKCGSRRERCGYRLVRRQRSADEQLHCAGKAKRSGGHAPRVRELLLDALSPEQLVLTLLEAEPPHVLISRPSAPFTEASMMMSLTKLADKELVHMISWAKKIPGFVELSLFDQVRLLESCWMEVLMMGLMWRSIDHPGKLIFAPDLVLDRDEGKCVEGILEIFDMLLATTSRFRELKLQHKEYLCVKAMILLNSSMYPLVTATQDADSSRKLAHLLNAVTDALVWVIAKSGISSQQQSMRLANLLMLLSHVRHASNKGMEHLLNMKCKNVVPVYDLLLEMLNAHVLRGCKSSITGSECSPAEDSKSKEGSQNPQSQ
Sequence of Potassium voltage-gated channel subfamily KQT member 2 (O88943 whole entry W236L): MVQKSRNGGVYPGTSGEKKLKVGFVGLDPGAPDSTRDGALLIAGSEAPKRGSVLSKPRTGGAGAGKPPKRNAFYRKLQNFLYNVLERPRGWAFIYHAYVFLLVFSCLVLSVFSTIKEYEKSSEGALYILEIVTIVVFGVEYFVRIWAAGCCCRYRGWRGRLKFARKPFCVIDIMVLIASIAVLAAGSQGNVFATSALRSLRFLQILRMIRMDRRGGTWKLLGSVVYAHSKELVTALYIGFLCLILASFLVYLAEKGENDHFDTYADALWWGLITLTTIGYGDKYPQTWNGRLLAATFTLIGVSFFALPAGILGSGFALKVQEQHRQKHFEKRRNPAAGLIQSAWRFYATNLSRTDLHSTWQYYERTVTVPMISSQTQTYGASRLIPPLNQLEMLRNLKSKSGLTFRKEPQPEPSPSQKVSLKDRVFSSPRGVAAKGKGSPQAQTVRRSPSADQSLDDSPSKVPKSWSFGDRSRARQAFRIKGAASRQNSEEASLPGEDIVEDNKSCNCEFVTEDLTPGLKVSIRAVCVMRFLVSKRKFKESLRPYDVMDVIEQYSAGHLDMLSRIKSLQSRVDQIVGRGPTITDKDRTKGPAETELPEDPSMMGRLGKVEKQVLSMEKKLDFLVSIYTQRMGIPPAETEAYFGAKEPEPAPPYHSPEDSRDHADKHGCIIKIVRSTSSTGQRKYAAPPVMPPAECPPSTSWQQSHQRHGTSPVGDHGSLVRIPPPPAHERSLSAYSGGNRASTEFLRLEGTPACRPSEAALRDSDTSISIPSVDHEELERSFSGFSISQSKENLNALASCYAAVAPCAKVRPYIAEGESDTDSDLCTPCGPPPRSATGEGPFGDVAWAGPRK

For `O=[N+]([O-])c1cc(C(F)(F)F)cc([N+](=O)[O-])c1NCCNC(=S)Nc1ccc(Cl)c(Cl)c1`, the EC50 [1] was 8.24 µM (active), the EC50 [2] was 6 µM (active) and the EC50 (Streptokinase A) was 7.06 µM (inconclusive). The EC50 [3] was 8.69 µM (active), the EC50 (Protein RecA) was 303 µM (active) and the EC50 [4] was 11.2 µM (not active). For the same compound, the AC50 [5] was 4.92 µM (active) and the IC50 [6] was 7.03 µM (active).

In the case of `CC1=C(C(=O)OC2CCCCCCC2)C(c2cccc(O)c2)NC(=O)N1` (stereo unspecified), the EC50 [7] is reported as 537 µM (active).

With `O=C(c1cnccn1)N1CCc2ccccc21` the IC50 (Estrogen receptor beta) was < 0.023 µM (not active) and the IC50 (Bcl-2-like protein 10) was 23.7 µM (active).
